pEC50: −log10 of the molar value. Like-named read-outs stand apart in the source and are kept apart here.
Columns and labels:
5HT2C receptors = target: T1, 5HT2C receptors (Homo sapiens, UniProt P28335); experiment: Human 5-HT2C functional high throughput screening assay in CHO-K1 cells (calcium flux); type: cell-based; set-up: expressed in transfected cells; host or cells: CHO-K1 cells; details: for pEC50: CHO-K1 cells, calcium flux; for Emax: CHO-K1, 5-HT2C, maximum functional response as percentage relative to the effect of serotonin
T1 sequence (P28335 33-458): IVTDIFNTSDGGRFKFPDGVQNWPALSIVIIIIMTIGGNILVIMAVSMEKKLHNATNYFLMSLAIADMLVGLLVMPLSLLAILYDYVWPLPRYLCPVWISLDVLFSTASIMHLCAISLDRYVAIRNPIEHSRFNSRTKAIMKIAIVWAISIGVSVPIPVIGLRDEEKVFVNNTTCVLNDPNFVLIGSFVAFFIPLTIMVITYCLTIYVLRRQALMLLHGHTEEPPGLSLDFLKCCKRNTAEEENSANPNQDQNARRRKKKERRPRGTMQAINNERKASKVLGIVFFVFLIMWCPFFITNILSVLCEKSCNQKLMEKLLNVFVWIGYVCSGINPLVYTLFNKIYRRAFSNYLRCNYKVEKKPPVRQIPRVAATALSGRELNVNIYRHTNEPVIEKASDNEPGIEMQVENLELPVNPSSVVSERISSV
Outline: (§1)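 Serum-starved CHO-K1 cells carrying the receptor; Ca4 dye, 60 min RT. Test compound added after a 10 s baseline, fluorescence followed for 3 min. EC50 from 4-parameter fit; Emax given as % of serotonin effect.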

5HT2B receptors = target: T2, 5HT2B receptors (Homo sapiens, UniProt P41595); experiment: Human 5-HT2B functional high throughput screening assay in CHO-K1 cells (calcium flux); type: cell-based; details: for pEC50: CHO-K1 cells, calcium flux
T2 construct: expressed in transfected cells; host or cells: CHO-K1 cells
T2 sequence (P41595 whole entry): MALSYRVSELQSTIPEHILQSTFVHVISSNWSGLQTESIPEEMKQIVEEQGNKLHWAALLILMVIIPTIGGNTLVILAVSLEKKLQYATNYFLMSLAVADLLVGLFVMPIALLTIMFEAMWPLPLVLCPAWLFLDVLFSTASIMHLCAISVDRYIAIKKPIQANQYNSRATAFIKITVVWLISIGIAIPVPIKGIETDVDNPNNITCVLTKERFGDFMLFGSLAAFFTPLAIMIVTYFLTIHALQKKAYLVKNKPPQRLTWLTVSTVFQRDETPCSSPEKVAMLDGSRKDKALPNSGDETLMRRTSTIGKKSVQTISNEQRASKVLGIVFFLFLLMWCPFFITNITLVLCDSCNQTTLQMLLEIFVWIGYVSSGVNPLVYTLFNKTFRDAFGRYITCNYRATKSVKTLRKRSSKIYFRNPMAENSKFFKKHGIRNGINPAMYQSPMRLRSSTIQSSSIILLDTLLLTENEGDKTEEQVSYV
Outline: as §1

[1] = 5-HT2C agonist activity, read-out: EC50
[2] = 5-HT2B agonist activity, read-out: EC50
[3] = 5-HT2B, maximum functional response as percentage relative to the effect of serotonin

SMILES | pEC50 (5HT2C receptors; [1]) | Emax (5HT2C receptors; read-out: Emax) | pEC50 (5HT2B receptors; [2]) | Emax (5HT2B receptors; [3]) | Emax (5HT2C receptors) | pEC50 (5HT2C receptors; EC50, 5-HT2C agonist activity) | pEC50 (5HT2B receptors; EC50, 5-HT2B agonist activity) | Emax (5HT2B receptors; CHO-K1) | Emax (5HT2B receptors; CHO-K1, 5-HT2B, maximum functional response as percentage relative to the effect of serotonin, read-out: Emax)
CC(=O)c1cccc(-c2ccc3c(c2)C(=O)N(C)C[C@@H]2CN(C)C[C@@H]32)c1 (relative stereo) [Example 191, Trans-8-(3-acetylphenyl)-2,5-dimethyl-1,2,3,3a,4,5-hexahydrobenzo[e]pyrrolo[3,4-c]azepin-6(10bH)-one] | 7.40 | 110% | < 5.00 | inactive |  |  |  |  | 
CN1C[C@H]2CN(C)C(=O)c3cc(-c4cccc(CCO)c4)ccc3[C@@H]2C1 (relative stereo) [Example 192, Trans-8-(3-(2-hydroxyethyl)phenyl)-2,5-dimethyl-1,2,3,3a,4,5-hexahydrobenzo[e]pyrrolo[3,4-c]azepin-6(10bH)-one] | 8.10 | 120% | < 5.00 | inactive |  |  |  |  | 
CC(O)c1cccc(-c2ccc3c(c2)C(=O)N(C)C[C@@H]2CN(C)C[C@@H]32)c1 (relative stereo) [Example 193, Trans-8-(3-(1-hydroxyethyl)phenyl)-2,5-dimethyl-1,2,3,3a,4,5-hexahydrobenzo[e]pyrrolo[3,4-c]azepin-6(10bH)-one] | 7.70 | > 120% | < 5.00 | inactive |  |  |  |  | 
CN1C[C@H]2CN(C)C(=O)c3cc(-c4cccc(C(C)(C)O)c4)ccc3[C@@H]2C1 (relative stereo) [Example 194, Trans-8-(3-(2-hydroxypropan-2-yl)phenyl)-2,5-dimethyl-1,2,3,3a,4,5-hexahydrobenzo[e]pyrrolo[3,4-c]azepin-6(10bH)-one] | 7.70 | > 120% | < 5.00 | inactive |  |  |  |  | 
CN1C[C@H]2CNC(=O)c3cc(-c4ccc5nonc5c4)ccc3[C@@H]2C1 (relative stereo) [Example 195, Trans-8-(benzo[c][1,2,5]oxadiazol-5-yl)-2-methyl-1,2,3,3a,4,5-hexahydrobenzo[e]pyrrolo[3,4-c]azepin-6(10bH)-one] | 8.00 | > 120% | < 5.00 | inactive |  |  |  |  | 
CC(C)c1ccc2c(c1)C(=O)NC[C@@H]1CN(C)C[C@@H]21 (relative stereo) [Example 196, Trans-8-isopropyl-2-methyl-1,2,3,3a,4,5-hexahydrobenzo[e]pyrrolo[3,4-c]azepin-6(10bH)-one] | 6.30 |  | < 5.00 | inactive | 30% |  |  |  | 
CC(C)=Cc1ccc2c(c1)C(=O)NC[C@@H]1CN(C)C[C@@H]21 (relative stereo) [Example 197, Trans-2-methyl-8-(2-methylprop-1-enyl)-1,2,3,3a,4,5-hexahydrobenzo[e]pyrrolo[3,4-c]azepin-6(10bH)-one] |  |  |  | inactive | > 120% | 8.52 | < 5.00 |  | 
CN1C[C@H]2CNC(=O)c3cc(-c4cccc(C=O)c4)ccc3[C@@H]2C1 (relative stereo) [Example 198, Trans-3-(2-methyl-6-oxo-1,2,3,3a,4,5,6,10b-octahydrobenzo[e]pyrrolo[3,4-c]azepin-8-yl)benzaldehyde] | 8.05 | > 120% | < 5.00 | inactive |  |  |  |  | 
CN1C[C@H]2CNC(=O)c3cc(C4=CCCC4)ccc3[C@@H]2C1 (relative stereo) [Example 201, Trans-8-cyclopentenyl-2-methyl-1,2,3,3a,4,5-hexahydrobenzo[e]pyrrolo[3,4-c]azepin-6(10bH)-one] |  |  |  | inactive | 120% | 7.00 | < 5.00 |  | 
C=C(c1ccc2c(c1)C(=O)NC[C@@H]1CN(C)C[C@@H]21)C(F)(F)F (relative stereo) [Example 202, Trans-2-methyl-8-(3,3,3-trifluoroprop-1-en-2-yl)-1,2,3,3a,4,5-hexahydrobenzo[e]pyrrolo[3,4-c]azepin-6(10bH)-one] | 6.40 |  | < 5.00 | inactive | 80% |  |  |  | 
Cc1ccc(-c2ccc3c(c2)C(=O)NC[C@@H]2CN(C)C[C@@H]32)o1 (relative stereo) [Example 203, Trans-2-methyl-8-(5-methylfuran-2-yl)-1,2,3,3a,4,5-hexahydrobenzo[e]pyrrolo[3,4-c]azepin-6(10bH)-one] | 8.22 | > 120% | < 5.00 | inactive |  |  |  |  | 
CN1C[C@H]2CNC(=O)c3cc(C4CCCCC4)ccc3[C@@H]2C1 (relative stereo) [Example 204, Trans-8-cyclohexyl-2-methyl-1,2,3,3a,4,5-hexahydrobenzo[e]pyrrolo[3,4-c]azepin-6(10bH)-one] | 6.30 |  | < 5.00 | inactive | 80% |  |  |  | 
CN1C[C@H]2CNC(=O)c3cc(C4CCCC4)ccc3[C@@H]2C1 (relative stereo) [Example 205, Trans-8-cyclopentyl-2-methyl-1,2,3,3a,4,5-hexahydrobenzo[e]pyrrolo[3,4-c]azepin-6(10bH)-one] | 6.52 |  | < 5.00 | inactive | 90% |  |  |  | 
Brc1ccc2c(c1)[C@H]1CNC[C@@H]1CCO2 (relative stereo) [Example 214, Trans-9-bromo-2,3,3a,4,5,10b-hexahydro-1H-[1]benzoxepino[4,5-c]pyrrole] |  |  |  |  | > 120% | 8.70 | 7.70 | 50% | 
c1ccc(-c2ccc3c(c2)[C@H]2CNC[C@@H]2CCO3)cc1 (relative stereo) [Example 215, Trans-9-phenyl-2,3,3a,4,5,10b-hexahydro-1H-[1]benzoxepino[4,5-c]pyrrole] | 6.22 | > 120% | 5.30 |  |  |  |  |  | 15%
CN1C[C@H]2CNC(=O)c3cc(OCc4ccccc4)ccc3[C@@H]2C1 (relative stereo) [Example 216, Trans-8-(benzyloxy)-2-methyl-1,2,3,3a,4,5-hexahydrobenzo[c]pyrrolo[3,4-e]azepin-6(10bH)-one] |  |  |  | inactive | > 120% | 8.70 | < 5.00 |  | 
O=C1NC[C@@H]2CN(Cc3ccccc3)C[C@H]2c2ccc(-c3ccc(F)cc3)cc21 (relative stereo) [Example 218, Trans-2-benzyl-8-(4-fluorophenyl)-1,2,3,3a,4,5-hexahydrobenzo[e]pyrrolo[3,4-c]azepin-6(10bH)-one] | 7.40 | > 120% | < 5.00 | inactive |  |  |  |  | 
O=C1NC[C@@H]2CNC[C@H]2c2ccc(-c3ccc(F)cc3)cc21 (relative stereo) [Example 219, Trans-8-(4-fluorophenyl)-1,2,3,3a,4,5-hexahydrobenzo[e]pyrrolo[3,4-c]azepin-6(10bH)-one] |  | > 120% | < 5.00 | inactive |  |  |  |  | 
O=C1C[C@@H]2CN(Cc3ccccc3)C[C@H]2c2ccccc2N1 (relative stereo) [Example 222, Trans-2-benzyl-1,2,3,3a,4,10b-hexahydrobenzo[b]pyrrolo[3,4-d]azepin-5(6H)-one] | 6.40 | > 120% | < 5.00 | inactive |  |  |  |  | 
O=C1Cc2ccccc2[C@@H]2CN(Cc3ccccc3)C[C@H]2N1 (relative stereo) [Example 223, Trans-2-benzyl-1,2,3,3a,4,10b-hexahydrobenzo[d]pyrrolo[3,4-b]azepin-5(6H)-one] | 5.30 | 60% | < 5.00 | inactive |  |  |  |  | 
CN1C[C@@H]2CNC[C@H]2c2ccc(F)cc2C1=O (relative stereo) [Example 224, Trans-8-fluoro-5-methyl-1,2,3,3a,4,5-hexahydrobenzo[c]pyrrolo[3,4-e]azepin-6(10bH)-one] |  |  |  |  | > 120% |  | 5.22 | 45% | 
CS(=O)(=O)c1cccc(-c2ccc3c(c2)C(=O)NC[C@@H]2CNC[C@@H]32)c1 (relative stereo) [Example 227, Trans-8-(3-(methylsulfonyl)phenyl)-1,2,3,3a,4,5-hexahydrobenzo[c]pyrrolo[3,4-e]azepin-6(10bH)-one] | 9.10 | > 120% | < 5.00 | inactive |  |  |  |  | 
CN(C)C(=O)c1cccc(-c2ccc3c(c2)C(=O)NC[C@@H]2CNC[C@@H]32)c1 (relative stereo) [Example 230, N,N-Dimethyl-3-(trans-6-oxo-1,2,3,3a,4,5,6,10b-octahydrobenzo[c]pyrrolo[3,4-e]azepin-8-yl)benzamide] | 7.10 | > 120% | < 5.00 | inactive |  |  |  |  | 

Reference: patent publication US8846951B2 (AbbVie Inc., priority 2009, dated 2014)
